Values after ≈ are worked out from the molar mass of the structure shown.
What was measured:
Mus musculus [1] = species on record: Mus musculus; assay: Antibacterial activity against mice infected with MRSA 5038 challenged with a dose of 1*10e7 cells/mouse; assay type: functional
Pseudomonas aeruginosa [2] = assay: Antibacterial activity against gram- negative Pseudomonas […] ATCC 10145; assay type: functional
Staphylococcus aureus [3] = assay: Antibacterial activity against MRSA 5129
Mus musculus [4] = species on record: Mus musculus; assay: Antibacterial activity against mice infected with Staphylococcus aureus Smith challenged with a dose of 1.32*10e7 cells/mouse; assay type: functional
Mus musculus [5] = species on record: Mus musculus; assay: Antibacterial activity against mice infected with MRSA 5129 challenged with a dose of 1.31*10e8 cells/mouse; assay type: functional
Staphylococcus aureus [6] = assay: Antibacterial activity against Staphylococcus aureus Smith.
Escherichia coli [7] = assay: Antibacterial activity against Escherichia coli No.29
Escherichia coli [8] = assay: Antibacterial activity against gram- negative Escherichia coli NIHJ JC-2; assay type: functional
Staphylococcus aureus [9] = assay: Antibacterial activity against gram- positive Staphylococcus aureus MRSA 57; assay type: functional
Staphylococcus aureus [10] = assay: Antibacterial activity against gram- positive Staphylococcus aureus FDA 209P; assay type: functional
Staphylococcus aureus [11] = assay: Antibacterial activity against MRSA 5038.
Mus musculus [12] = species on record: Mus musculus; assay: Antibacterial activity against mice infected with Escherichia coli No.29 challenged with a dose of 1.35*10e6 cells/mouse; assay type: functional
Pseudomonas aeruginosa [13] = assay: Antibacterial activity against gram- negative Pseudomonas aeruginosa ATCC 10145; assay type: functional
Escherichia coli [14] = assay: Antibacterial activity against Escherichia coli No.29; remark: listed apart in the source
Mus musculus [15] = species on record: Mus musculus; assay: Antibacterial activity against mice infected with Staphylococcus aureus Smith.; assay type: functional
Staphylococcus aureus [16] = assay: Antibacterial activity against Staphylococcus aureus Smith.; remark: listed apart in the source
Mus musculus [17] = species on record: Mus musculus; assay: Antibacterial activity against mice infected with Escherichia coli No.29; assay type: functional
Mus musculus [18] = species on record: Mus musculus; assay: Antibacterial activity against mice infected with MRSA 5120 challenged with a dose of 7.6*10e7 cells/mouse; assay type: functional
Staphylococcus aureus [19] = assay: Antibacterial activity against gram- positive Staphylococcus aureus Methicillin resistant Staphylococcus aureus 57; assay type: functional
Pseudomonas aeruginosa [20] = assay: Antibacterial activity against Pseudomonas aeruginosa ATCC 10145; assay type: functional
Staphylococcus aureus [21] = assay: microbe, parasite or virus in culture
Description: Antibacterial activity against Methicillin resistant Staphylococcus aureus 5038

Staphylococcus aureus [22] = assay: microbe, parasite or virus in culture; remark: listed apart in the source
Description: Antibacterial activity against Methicillin resistant Staphylococcus aureus 5129

Staphylococcus aureus [23] = assay: microbe, parasite or virus in culture; remark: listed apart in the source
Description: Antibacterial activity against Methicillin resistant Staphylococcus aureus 5120

Escherichia coli [24] = assay: Antibacterial activity against Escherichia coli NIHJ JC-2; assay type: functional
Staphylococcus aureus [25] = assay: Antibacterial activity against Staphylococcus aureus Smith
Mus musculus [26] = species on record: Mus musculus; assay: Antibacterial activity against mice infected with MRSA 5038; assay type: functional

Compound | MIC (Escherichia coli [8]) | MIC (Staphylococcus aureus [9]) | MIC (Staphylococcus aureus [10]) | MIC (Pseudomonas aeruginosa [13]) | MIC (Escherichia coli [14]) | MIC (Staphylococcus aureus [16]) | ED50 (Mus musculus [17]) | also measured
C[n+]1ccc(SCC2=C(C(=O)O)N3C(=O)[C@@H](NC(=O)/C(=N/OC4CCCC4)c4csc(N)n4)[C@H]3CO2)cc1.O=S(=O)([O-])O | 0.39 µg/mL | 3.13 µg/mL | 0.05 µg/mL | – | – | – | – | ED50 (Mus musculus [1]): 3.4 mg/kg; MIC (Pseudomonas aeruginosa [2]): 3.13 µg/mL; MIC (Staphylococcus aureus [3]): 6.25 µg/mL; ED50 (Mus musculus [4]): 0.08 mg/kg; ED50 (Mus musculus [5]): 3.91 mg/kg; MIC (Staphylococcus aureus [6]): 0.39 µg/mL; MIC (Escherichia coli [7]): 0.39 µg/mL; MIC (Staphylococcus aureus [11]): 3.13 µg/mL; ED50 (Mus musculus [12]): 0.09 mg/kg
CO/N=C(/C(=O)N[C@@H]1C(=O)N2C(C(=O)O)=C(CSc3cc[n+](C)cc3)OC[C@H]12)c1csc(N)n1.O=S(=O)([O-])O | < 0.025 µg/mL | 50 µg/mL | 0.2 µg/mL | 6.25 µg/mL | – | – | – | –
CCC(=O)C[n+]1ccc(SCC2=C(C(=O)O)N3C(=O)[C@@H](NC(=O)/C(=N/OC4CCCC4)c4csc(N)n4)[C@H]3CO2)cc1.O=S(=O)([O-])O | 0.39 µg/mL | 6.25 µg/mL | 0.2 µg/mL | 6.25 µg/mL | 0.39 µg/mL | 0.2 µg/mL | 0.15 mg/kg | ED50 (Mus musculus [15]): 0.22 mg/kg; ED50 (Mus musculus [18]): 1 mg/kg
CO/N=C(/C(=O)N[C@@H]1C(=O)N2C(C(=O)O)=C(CSc3cc[n+](CC(C)=O)cc3)OC[C@H]12)c1csc(N)n1.O=S(=O)([O-])O | < 0.025 µg/mL | 100 µg/mL | 0.39 µg/mL | 12.5 µg/mL | – | – | – | –
CO[C@@]1(NC(=O)CSC(F)F)C(=O)N2C(C(=O)O)=C(CSc3nnnn3CCO)CO[C@@H]21 [FLOMOXEF] | 0.1 µg/mL (≈ 0.201 µM) | – | 0.2 µg/mL (≈ 0.403 µM) | > 100 µg/mL | 0.1 µg/mL (≈ 0.201 µM) | 0.39 µg/mL (≈ 0.786 µM) | 0.43 mg/kg | MIC (Staphylococcus aureus [19]): 25 µg/mL (≈ 50.4 µM)
CN[C@H](CC(C)C)C(=O)N[C@H]1C(=O)N[C@@H](CC(N)=O)C(=O)N[C@H]2C(=O)N[C@H]3C(=O)N[C@H](C(=O)N[C@H](C(=O)O)c4cc(O)cc(O)c4-c4cc3ccc4O)[C@H](O)c3ccc(c(Cl)c3)Oc3cc2cc(c3O[C@@H]2O[C@H](CO)[C@@H](O)[C@H](O)[C@H]2O[C@H]2C[C@](C)(N)[C@H](O)[C@H](C)O2)Oc2ccc(cc2Cl)[C@H]1O [VANCOMYCIN] | – | – | – | – | – | – | – | MIC (Pseudomonas aeruginosa [20]): > 100 µg/mL; MIC (Staphylococcus aureus [21]): 1.56 µg/mL (≈ 1.08 µM); MIC (Staphylococcus aureus [22]): 0.78 µg/mL (≈ 0.538 µM); MIC (Staphylococcus aureus [23]): 0.78 µg/mL (≈ 0.538 µM); MIC (Escherichia coli [24]): > 100 µg/mL; MIC (Staphylococcus aureus [25]): 0.78 µg/mL (≈ 0.538 µM); ED50 (Mus musculus [26]): 2.7 mg/kg
